In experiment [1] the target is human CB2 receptor (Homo sapiens (Human), UniProt P34972). Briefly: cAMP assay, CHO cells expressing human CB2 receptors. To be noted: functional cAMP assay, read-out: CB2 hcAMP EC50. In kind it is cell-based. As for the experimental part: (§1) CHO cells expressing human CB1 or CB2 receptors are seeded 17-24 hours prior to the experiment 50.000 cells per well in a black 96 well plate with flat clear bottom (Corning Costar #3904) in DMEM (Invitrogen No. 31331), 1×HT supplement, with 10% fetal calf serum and incubated at 5% CO2 and 37° C. in a humidified incubator. The growth medium was exchanged with Krebs Ringer Bicarbonate buffer with 1 mM IBMX and incubated at 30° C. for 30 min. Compounds were added to a final assay volume of 100 μl and incubated for 30 min at 30° C. Using the cAMP-Nano-TRF detection kit the assay (Roche Diagnostics) was stopped by the addition of 50 μl lysis reagent (Tris, NaCl, 1.5% Triton X100, 2.5% NP40, 10% NaN3) and 50 μl detection solutions (20 μM mAb Alexa700-cAMP 1:1, and 48 μM Ruthenium-2-AHA-cAMP) and shaken for 2 h at room temperature. The time-resolved energy transfer is measured by a TRF reader (Evotec Technologies GmbH), equipped with a ND:YAG laser as excitation source. The plate is measured twice with the excitation at 355 nm and at the emission with a delay of 100 ns and a gate of 100 ns, total exposure time 10 s at 730 (bandwidth 30 nm) or 645 nm (bandwidth 75 nm), respectively. The FRET signal is calculated as follows: FRET=T730-Alexa730-P(T645-B645) with P=Ru730-B730/Ru645-B645, where T730 is the test well measured at 730 nM, T645 is the test well measured at 645 nm, B730 and B645 are the buffer controls at 730 nm and 645 nm, respectively. cAMP content is determined from the function of a standard curve spanning from 10 μM to 0.13 nM cAMP.
Sequence of human CB2 receptor (P34972 whole entry): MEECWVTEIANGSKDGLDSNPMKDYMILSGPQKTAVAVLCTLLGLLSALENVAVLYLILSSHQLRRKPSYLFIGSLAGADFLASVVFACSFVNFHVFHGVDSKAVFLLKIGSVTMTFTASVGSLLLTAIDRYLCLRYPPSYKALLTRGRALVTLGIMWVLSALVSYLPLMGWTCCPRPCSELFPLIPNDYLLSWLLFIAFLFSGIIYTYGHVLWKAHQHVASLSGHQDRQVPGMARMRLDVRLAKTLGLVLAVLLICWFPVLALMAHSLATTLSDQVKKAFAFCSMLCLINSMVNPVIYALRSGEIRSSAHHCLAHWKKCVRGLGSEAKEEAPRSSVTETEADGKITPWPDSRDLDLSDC
(§2) EC50 values were determined using Activity Base analysis (ID Business Solution, Limited). The EC50 values for a wide range of cannabinoid agonists generated from this assay were in agreement with the values published in the scientific literature.
Background: Changes in cAMP serve as a functional read-out for many G protein-coupled receptors.

Experiment [2] addresses human CB1 receptor (Homo sapiens (Human), UniProt P21554). Briefly: cAMP assay, CHO cells expressing human CB1 receptors. Format: cell-based. To be noted: functional cAMP assay, read-out: CB1 hcAMP EC50. How it is done:
as §1, §2

Sequence of human CB1 receptor (P21554 whole entry): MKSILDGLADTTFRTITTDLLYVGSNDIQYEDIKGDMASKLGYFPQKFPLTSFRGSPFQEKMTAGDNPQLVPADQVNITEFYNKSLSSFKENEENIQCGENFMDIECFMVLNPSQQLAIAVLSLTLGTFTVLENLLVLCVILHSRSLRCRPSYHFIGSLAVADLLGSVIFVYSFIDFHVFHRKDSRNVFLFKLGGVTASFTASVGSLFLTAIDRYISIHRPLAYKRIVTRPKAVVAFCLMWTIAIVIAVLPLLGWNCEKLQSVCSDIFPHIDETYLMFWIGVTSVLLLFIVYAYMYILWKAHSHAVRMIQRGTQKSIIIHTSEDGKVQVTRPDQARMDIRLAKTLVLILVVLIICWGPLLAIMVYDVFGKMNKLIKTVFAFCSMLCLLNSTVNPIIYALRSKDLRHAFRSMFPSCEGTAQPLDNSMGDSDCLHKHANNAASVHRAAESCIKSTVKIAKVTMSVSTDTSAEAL

Consider `CC(C)c1nc(N2CCC(F)(F)C2)c2nnn(Cc3ccccc3Cl)c2n1` [Example 3, 3-[(2-Chlorophenyl)methyl]-7-(3,3-difluoropyrrolidin-1-yl)-5-isopropyl-triazolo[4,5-d]pyrimidine], for which the EC50 was found to be 0.5 nM in experiment [1] and 770 nM in experiment [2].
The matching figures for `C[C@@]1(O)CCN(c2nc(N3CCOCC3)nc3c2nnn3Cc2ccccc2C(F)(F)F)C1` [Example 37, (3R)-3-Methyl-1-[5-morpholin-4-yl-3-[[2-(trifluoromethyl)phenyl]methyl]triazolo[4,5-d]pyrimidin-7-yl]pyrrolidin-3-ol]: 23.6 nM and above 10000 nM.
The matching figures for `C[C@]1(O)CCN(c2nc(N3CCOCC3)nc3c2nnn3Cc2ncccc2Cl)C1` [Example 34, (3S)-1-[3-[(3-chloropyridin-2-yl)methyl]-5-morpholin-4-yltriazolo[4,5-d]pyrimidin-7-yl]-3-methylpyrrolidin-3-ol]: 45.3 nM and above 10000 nM.
In the same order, the values of `CCS(=O)(=O)c1nc(N2CCC(F)(F)C2)c2nnn(Cc3ccccc3Cl)c2n1` [Example 86, 3-[(2-Chlorophenyl)methyl]-7-(3,3-difluoropyrrolidin-1-yl)-5-ethylsulfonyltriazolo [4,5-d]pyrimidine] are 86.6 nM and above 10000 nM.
As for `COc1ccc(Cn2nnc3c(N4CC[C@](C)(O)C4)nc(NC(C)(C)C)nc32)cc1` [Example 30, (3S)-1-[5-(tert-Butylamino)-3-[(4-methoxyphenyl)methyl]triazolo[4,5-d]pyrimidin-7-yl]-3-methylpyrrolidin-3-ol], the figures for the EC50 in experiment [1] and in experiment [2] were 89.9 nM and above 10000 nM, respectively.
The matching figures for `C[C@H](Oc1nc(N2CCC(F)(F)C2)c2nnn(CCC(F)(F)F)c2n1)C(F)(F)F` [Example 75, 7-(3,3-Difluoropyrrolidin-1-yl)-5-[(2S)-1,1,1-trifluoropropan-2-yl]oxy-3-(3,3,3-trifluoropropyl)triazolo[4,5-d]pyrimidine]: 4.3 nM and above 10000 nM.
In the same order, the values of `FC1(F)CCN(c2nc(N3CCOCC3)nc3c2nnn3Cc2ccccc2Cl)C1` [Example 14, 4-[3-[(2-Chlorophenyl)methyl]-7-(3,3-difluoropyrrolidin-1-yl)triazolo[4,5-d]pyrimidin-5-yl]morpholine] are 3.5 nM and above 10000 nM.
In the same order, the values of `CC1(COc2nc(N3CCC(F)(F)C3)c3nnn(Cc4ccccc4Cl)c3n2)COC1` [Example 50, 3-[(2-Chlorophenyl)methyl]-7-(3,3-difluoropyrrolidin-1-yl)-5-[(3-methyloxetan-3-yl)methoxy]triazolo[4,5-d]pyrimidine] are 2.8 nM and above 10000 nM.
Consider `FC1(F)CCN(c2nc(OC3COC3)nc3c2nnn3Cc2ccccc2Cl)C1` [Example 49, 3-[(2-Chlorophenyl)methyl]-7-(3,3-difluoropyrrolidin-1-yl)-5-(oxetan-3-yloxy)triazolo [4,5-d]pyrimidine], for which the EC50 in experiment [1] was 21.9 nM; in experiment [2] it was above 10000 nM.
The matching figures for `CCCCSc1nc(N2CCC(F)(F)C2)c2nnn(Cc3ccccc3Cl)c2n1` [Example 91, 5-Butylsulfanyl-3-[(2-chlorophenyl)methyl]-7-(3,3-difluoropyrrolidin-1-yl)triazolo [4,5-d]pyrimidine]: 6.9 nM and above 10000 nM.
The matching figures for `FC1(F)CCN(c2nc(OC3CCC3)nc3c2nnn3Cc2ccccc2Cl)C1` [Example 48, 3-[(2-Chlorophenyl)methyl]-5-cyclobutyloxy-7-(3,3-difluoropyrrolidin-1-yl)triazolo[4,5-d]pyrimidine]: 1.7 nM and above 10000 nM.
The matching figures for `Cc1nonc1Cn1nnc2c(N3CCC(F)(F)C3)nc(O[C@@H](C)C(F)(F)F)nc21` [Example 74, 3-[[7-(3,3-Difluoropyrrolidin-1-yl)-5-[(2S)-1,1,1-trifluoropropan-2-yl]oxytriazolo[4,5-d]pyrimidin-3-yl]methyl]-4-methyl-1,2,5-oxadiazole]: 1.8 nM and above 10000 nM.
For the compound `CCCCS(=O)(=O)c1nc(N2CCC(F)(F)C2)c2nnn(Cc3ccccc3Cl)c2n1` [Example 93, 5-Butylsulfonyl-3-[(2-chlorophenyl)methyl]-7-(3,3-difluoropyrrolidin-1-yl)triazolo [4,5-d]pyrimidine], the values for the EC50 in experiment [1] and in experiment [2] were 8.8 nM and above 10000 nM, respectively.
In the same order, the values of `C[C@H](Oc1nc(N2CCC(F)(F)C2)c2nnn(Cc3ncccc3Cl)c2n1)C(F)(F)F` [Example 70, 3-[(3-Chloropyridin-2-yl)methyl]-7-(3,3-difluoropyrrolidin-1-yl)-5-[(2S)-1,1,1-trifluoropropan-2-yl]oxytriazolo[4,5-d]pyrimidine] are 5.1 nM and above 10000 nM.
For `COc1ccc(Cn2nnc3c(N4CCC(F)(F)C4)nc(NC(C)(C)C)nc32)cc1` [Example 20, N-tert-Butyl-7-(3,3-difluoropyrrolidin-1-yl)-3-[(4-methoxyphenyl)methyl]triazolo [4,5-d]pyrimidin-5-amine], the EC50 in experiment [1] is 20.3 nM; in experiment [2], above 10000 nM.
In the case of `O[C@H]1CCN(c2nc(OCC(F)(F)F)nc3c2nnn3Cc2ccccc2C(F)(F)F)C1` [Example 61, (3S)-1-[5-(2,2,2-Trifluoroethoxy)-3-[[2-(trifluoromethyl)phenyl]methyl]triazolo[4,5-d]pyrimidin-7-yl]pyrrolidin-3-ol], the EC50 was 7.5 nM in experiment [1] and above 10000 nM in experiment [2].
The matching figures for `CC(C)(C)Nc1nc(N2CCC(F)(F)C2)c2nnn(Cc3ccccc3Cl)c2n1` [Example 12, N-tert-Butyl-3-[(2-chlorophenyl)methyl]-7-(3,3-difluoropyrrolidin-1-yl)triazolo[4,5-d]pyrimidin-5-amine]: 0.9 nM and 365 nM.
In the same order, the values of `C#CCOc1nc(N2CCC(F)(F)C2)c2nnn(Cc3ccccc3Cl)c2n1` [Example 56, 3-[(2-Chlorophenyl)methyl]-7-(3,3-difluoropyrrolidin-1-yl)-5-prop-2-ynoxytriazolo [4,5-d]pyrimidine] are 11 nM and above 10000 nM.
The matching figures for `CCOc1nc(N2CCC(F)(F)C2)c2nnn(Cc3ccccc3Cl)c2n1` [Example 44, 3-[(2-Chlorophenyl)methyl]-7-(3,3-difluoropyrrolidin-1-yl)-5-ethoxytriazolo[4,5-d]pyrimidine]: 4 nM and above 10000 nM.
With `CC1(Nc2nc(N3CCC(F)(F)C3)c3nnn(Cc4ccccc4Cl)c3n2)COC1` [Example 13, 3-[(2-Chlorophenyl)methyl]-7-(3,3-difluoropyrrolidin-1-yl)-N-(3-methyloxetan-3-yl)triazolo[4,5-d]pyrimidin-5-amine], the concentration giving a half-maximal response (EC50) in experiment [1] is 12.5 nM; in experiment [2] it was above 10000 nM.
The matching figures for `C[C@]1(O)CCN(c2nc(N3CCOCC3)nc3c2nnn3Cc2ccccc2Cl)C1` [Example 32, (3S)-1-[3-[(2-Chlorophenyl)methyl]-5-morpholino-triazolo[4,5-d]pyrimidin-7-yl]-3-methyl-pyrrolidin-3-ol]: 9.6 nM and above 10000 nM.
The matching figures for `FC1(F)CCN(c2nc(C3CC3)nc3c2nnn3Cc2ccccc2Cl)C1` [Example 4, 3-[(2-Chlorophenyl)methyl]-5-cyclopropyl-7-(3,3-difluoropyrrolidin-1-yl)triazolo[4,5-d]pyrimidine]: 1 nM and 750 nM.
The matching figures for `COc1ccc(Cn2nnc3c(N4CC[C@H](NC(C)=O)C4)nc(NC(C)(C)C)nc32)cc1` [Example 21, N-[(3S)-1-[5-(tert-Butylamino)-3-[(4-methoxyphenyl)methyl]triazolo[4,5-d]pyrimidin-7-yl]pyrrolidin-3-yl]acetamide]: 141 nM and above 10000 nM.
In the case of `CC(=O)N[C@H]1CCN(c2nc(OCC(C)(C)C)nc3c2nnn3Cc2ncccc2Cl)C1` [Example 78, N-[(3S)-1-[3-[(3-Chloropyridin-2-yl)methyl]-5-(2,2-dimethylpropoxy)triazolo[4,5-d]pyrimidin-7-yl]pyrrolidin-3-yl]acetamide], the values for the EC50 in experiment [1] and in experiment [2] were 168 nM and above 10000 nM, respectively.
Regarding `CC(O)CS(=O)(=O)c1nc(N2CCC(F)(F)C2)c2nnn(Cc3ccccc3Cl)c2n1` (centres unmarked) [Example 95, 1-[3-[(2-Chlorophenyl)methyl]-7-(3,3-difluoropyrrolidin-1-yl)triazolo[4,5-d]pyrimidin-5-yl]sulfonylpropan-2-ol], the EC50 was 64.4 nM in experiment [1] and above 10000 nM in experiment [2].

By EC50 is commonly meant the concentration giving half of the maximal effect.

The record behind these values is patent publication US9593123B2, “Triazolo[4,5-D]pyrimidine derivatives” (Hoffmann-La Roche Inc., priority 2013, dated 2017).
